The structures appear in SMILES notation.

Common to all, as to format: functional
What all share (conditions): read-out: GI

The subject of assay [1] is Alternaria solani. In words: Fungicidal activity against Alternaria solani assessed as growth inhibition at 50 ug/mL.
Assay [2] deals with Alternaria solani. Put plainly: Fungicidal activity against Alternaria solani assessed as growth inhibition at 1 ug/mL.
Assay [3] has as its system Fusarium oxysporum. In words: Fungicidal activity against Fusarium oxysporum assessed as growth inhibition at 1 ug/mL.
Assay [4] relates to Botryosphaeria berengeriana. In words: Fungicidal activity against Botryosphaeria berengeriana assessed as growth inhibition at 1 ug/mL.
The test system of assay [5] is Mycosphaerella arachidis. In words: Fungicidal activity against Mycosphaerella arachidis assessed as growth inhibition at 50 ug/mL.
Assay [6] relates to Fusarium graminearum. Put plainly: Fungicidal activity against Fusarium graminearum assessed as growth inhibition at 1 ug/mL.
The test system of assay [7] is Fusarium oxysporum. In words: Fungicidal activity against Fusarium oxysporum assessed as growth inhibition at 50 ug/mL.
The test system of assay [8] is Fusarium graminearum. Put plainly: Fungicidal activity against Fusarium graminearum assessed as growth inhibition at 50 ug/mL.
Assay [9] relates to Mycosphaerella arachidis. Put plainly: Fungicidal activity against Mycosphaerella arachidis assessed as growth inhibition at 1 ug/mL.
Assay [10] relates to Botryosphaeria berengeriana. Put plainly: Fungicidal activity against Botryosphaeria berengeriana assessed as growth inhibition at 50 ug/mL.
In assay [11] the test system is Alternaria solani. In words: Fungicidal activity against Alternaria solani assessed as growth inhibition at 5 ug/mL.
Assay [12] deals with Mycosphaerella arachidis. Put plainly: Fungicidal activity against Mycosphaerella arachidis assessed as growth inhibition at 5 ug/mL.
For assay [13], the system named is Botryosphaeria berengeriana. In words: Fungicidal activity against Botryosphaeria berengeriana assessed as growth inhibition at 5 ug/mL.
Assay [14] relates to Fusarium graminearum. Put plainly: Fungicidal activity against Fusarium graminearum assessed as growth inhibition at 5 ug/mL.
The test system of assay [15] is Fusarium oxysporum. In words: Fungicidal activity against Fusarium oxysporum assessed as growth inhibition at 5 ug/mL.

Turning to `CNCC(O)(Cn1cncn1)c1ccc(Oc2ccc(F)cc2)cc1Cl` (stereo not given), the inhibition of growth at 50 µg/mL in assay [1], in assay [5], in [7], in assay [8] and in assay [10] was 100% throughout. Besides, the inhibition of growth at 1 µg/mL in assay [2] stood at 86.7%; in assay [3], 68.7%; in [4] it was 74.6%; in assay [6], 67.2%; in [9], 72.1%.
With `CC(O)(Cn1cncn1)c1ccc(Oc2ccc(F)cc2)cc1Cl` (stereo not given), the inhibition of growth at 50 µg/mL was determined as 100% in assay [1]; 99% in [5]; 99% in assay [7]; 98% in assay [8]; 100% in [10]. For the same molecule, the inhibition of growth at 1 µg/mL came to 20% in assay [2]; 17.9% in assay [3]; 48.7% in [4]; 0% in [6]; 37.5% in assay [9].
With `OC(Cn1cncn1)(Cn1cncn1)c1ccc(Oc2ccc(Cl)cc2)cc1Cl`, the inhibition of growth at 50 µg/mL in [1] was found to be 99%; in [5] it was 100%; in assay [7], 99%; in [8] it was 100%; in [10], 100%. Besides, the inhibition of growth at 5 µg/mL amounted to 84.2% in assay [11]; 100% in [12]; 91% in assay [13]; 100% in assay [14]; 80.9% in assay [15]. The inhibition of growth at 1 µg/mL in assay [2] came out at 58.6%; in assay [3] it was 62.5%; in assay [4] it was 90.3%; in assay [6] it was 82.6%; in [9] it was 88.1%.
Take `OC(Cn1cncn1)(Cn1cncn1)c1ccc(Oc2ccc(F)cc2)cc1Cl`: the inhibition of growth at 50 µg/mL is 97.5% in [1]; 100% in assay [5]; 100% in assay [7]; 95% in [8]; 95.9% in assay [10]. In addition, the inhibition of growth at 1 µg/mL in [2] stood at 75%; in assay [3], 90%; in [4] it was 49.3%; in [6], 21.8%; in assay [9], 39.5%.
Regarding `CN(C)CC(O)(Cn1cncn1)c1ccc(Oc2ccc(Cl)cc2)cc1Cl` (stereo not given), the inhibition of growth at 50 µg/mL in [1] turned out to be 99.1%; in assay [5] it was 97.2%; in assay [7], 100%; in assay [8] it was 96.9%; in assay [10], 100%. Moreover, the inhibition of growth at 1 µg/mL was determined as 18.6% in assay [2]; 0% in [3]; 27.7% in assay [4]; 4.2% in assay [6]; 0% in assay [9].
Consider `CC(C)(C)C(O)(CCc1ccc(Cl)cc1)Cn1cncn1` (stereo not given) [TEBUCONAZOLE], for which the inhibition of growth at 50 µg/mL in [1], in assay [5], in [7], in assay [8] and in assay [10] was 100% in each case. Besides, the inhibition of growth at 1 µg/mL in assay [2] was 65.5%; in assay [3] it was 65.6%; in assay [4], 68.2%; in assay [6], 86.9%; in assay [9] it was 91%.
For the molecule `CONCC(O)(Cn1cncn1)c1ccc(Oc2ccc(Cl)cc2)cc1Cl` (stereo not given), the inhibition of growth at 50 µg/mL in assay [1] was determined as 100%; in assay [5] it was 98.4%; in assay [7] it was 100%; in assay [8], 97.3%; in assay [10], 100%. For the same molecule, the inhibition of growth at 1 µg/mL was found to be 61.3% in assay [2]; 0% in assay [3]; 84.2% in assay [4]; 18.2% in assay [6]; 55.3% in [9].
Take `CC1COC(Cn2cncn2)(c2ccc(Oc3ccc(Cl)cc3)cc2Cl)O1` (stereo not given) [DIFENOCONAZOLE]: the inhibition of growth at 50 µg/mL was 99.2% in [1]; 100% in assay [5]; 99.9% in assay [7]; 100% in assay [8]; 100% in assay [10]. Moreover, the inhibition of growth at 1 µg/mL stood at 95% in assay [2]; 53.1% in [3]; 69.7% in assay [4]; 73.9% in assay [6]; 56.7% in assay [9].
As to `CNCC(O)(Cn1cncn1)c1ccc(Oc2ccc(Cl)cc2)cc1Cl` (stereo not given), the inhibition of growth at 50 µg/mL was found to be 99% in [1]; 99% in assay [5]; 100% in assay [7]; 98% in assay [8]; 100% in [10]. The inhibition of growth at 1 µg/mL in assay [2] is 50.3%; in [3], 0%; in assay [4], 96%; in assay [6], 72.5%; in assay [9] it was 57.2%.

Values taken from ChEMBL document CHEMBL3045156, “Synthesis and fungicidal evaluation of 2-arylphenyl ether-3-(1H-1,2,4-triazol-1-yl)propan-2-ol derivatives” (2009).
